Test results from US11571459B2, “Methods for treating cancer using PS-targeting antibodies with immuno-oncology agents” (ONCXERNA THERAPEUTICS, INC., priority 2017, dated 2023).

How the values were obtained:
[1] = system: previously-treated Stage IIIb/IV non-squamous NSCLC; experiment: Phase III trial of bavituximab plus docetaxel in NSCLC
Text: (§1) This global, double-blind Phase III trial was initiated in 2012. Selection criteria were for patients with Stage IIIb/IV non-squamous NSCLC who progressed on platinum-doublet chemotherapy (should have progressed on appropriate targeted therapy if known EGFR or ALK mutation), with ECOG PS 0-1 and prior immunotherapy allowed (ECOG is the performance status scale defined by the Eastern Cooperative Oncology Group). […] The primary endpoint was overall survival (OS) and secondary endpoints included objective response rate (Independent Central Review, ICR), progression-free survival (ICR), safety, PK, Quality of Life (LCSS) and exploratory biomarkers, including immune correlates.
(§2) OS was analyzed by VeriStrat subgroups using Kaplan-Meier statistical methods.
(§3) A single cutoff method was first used to assess the patient β2GPI data.
(§4) The initial analyses described above prompted further, extensive analyses of the data in 592 evaluable patients. These analyses used a two cutoff method (Klein & Moeschberger, 2003).
(§5) Archival tissue obtained at the time of diagnosis was requested, but not required, in the Phase III trial of Example X. Formalin-fixed paraffin-embedded (FFPE) slides were stained with antibodies for a panel of lymphoid (or tumor) cell markers, as described in Feng et al., 2015: CD3+, CD8+, FoxP3+, PD-L1+, CD163+ and CK+ (cytokeratin, an epithelial carcinoma marker) using a mutliplex (6-plex) quantitative immunohistochemistry (IHC) assay (OPAL®, PerkinElmer, Waltham, Mass., USA) and using DAPI. The PD-L1 antibody used was the rabbit anti-PD-L1 antibody termed E1L3N® XP® (Cell Signaling Technology, (CST), Danvers, Mass., Catalogue #13684; Mahoney et al., 2015). Baseline PD-L1 expression was retrospectively scored on tumor cells (TC, i.e., CK+) and PD-L1 expressing tumor cells were classified according to their percentage within the total number of tumor cells using established assays and classifications (Fehrenbacher et al., 2016), as follows: TC3≥50%; TC2≥5% and ≤50%; TC1≥1% and <5%; and TC0<1%. Cox regression models for PD-L1 IHC subgroup populations were used for correlation with OS.
(§6) Kaplan-Meier statistical methods and Cox proportional hazard models were utilized to evaluate and contrast the correlation of peripheral (and intratumoral) IFNγ levels with OS based on a data cut from the Phase III trial (Example X) dated Feb.

[2] = system: previously treated non-squamous NSCLC
Experimental: The primary objective of this study was to compare the ORR (CR+PR) among the treatment arms. Secondary objectives included comparing PFS, DR, OS, safety and PK.
Additional blood draws were performed for these patients during Cycles 1 and 2 at specified time points.
Samples from the NSCLC Phase II trial of Example IX (PPHM 0902) were tested using the functional β2GPI assay of Example XII.

[3] = system: previously-treated Stage IIIb/IV non-squamous NSCLC; conditions: in vivo
Text: as §1, §2, §3, §4, §5, §6

β2GPI = molecular target: T1, β2GPI (Homo sapiens, UniProt P02749); experiment: Antibody binding to β2GPI (domain mapping)
T1 sequence (P02749 20-345): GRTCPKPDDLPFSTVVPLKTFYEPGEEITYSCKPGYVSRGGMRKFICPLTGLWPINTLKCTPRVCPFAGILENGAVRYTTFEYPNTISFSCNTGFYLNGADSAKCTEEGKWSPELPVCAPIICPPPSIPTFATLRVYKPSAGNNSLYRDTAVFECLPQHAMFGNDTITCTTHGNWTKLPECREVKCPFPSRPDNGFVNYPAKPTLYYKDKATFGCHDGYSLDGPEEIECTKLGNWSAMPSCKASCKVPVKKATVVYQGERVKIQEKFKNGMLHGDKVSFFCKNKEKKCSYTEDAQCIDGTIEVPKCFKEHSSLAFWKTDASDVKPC
Text: In summary, it was shown that the 3G4 antibody binds to β2GPI at domain II and that the lipid binding region of β2GPI domain V is required for co-binding of 3G4 (and ch3G4) and β2GPI to PS exposed on cells. […] Accordingly, antibody and β2GPI co-bind to PS exposed on the outer surfaces of membranes, such as occurs on activated endothelial cells, tumor vascular endothelial cells and tumor cells, as well as on virally infected cells.

tumors = conditions: syngeneic and xenogeneic tumor models; cited from earlier work
PS [4] = conditions: in the presence of serum; cited from earlier work
PS [5] = experiment: ELISA binding to PS-coated plates; conditions: phospholipid-coated ELISA plates
Experimental: The 3G4 antibody was produced by immunizing mice with autologous, PS-positive endothelial cells, as reported in Ran et al., 2005. The 3G4 antibody was tested for binding to PS in a standard ELISA in the presence and absence of serum, and was initially characterized as being “serum-independent”, i.e., an antibody that binds to PS in the absence of serum.
In a follow-on study, the binding of the 2aG4 antibody to PS was tested in an ELISA in the presence of varying concentrations of human β2GPI.
These included binding to PS in ELISAs, FACS analyses using PS-positive cells and functional assays in the form of an NFAT surrogate ADCC bioassay (Larson et al., 2013).

[6] = irrespective of the presence of serum; cited from earlier work
[7] = system: ABAE cells with exposed PS; experiment: Binding of antibody-β2GPI complexes to PS on cells; format: cell-based; conditions: first study
Experimental: In analyzing the β2GPI levels required for binding of 3G4-β2GPI complexes to PS on cells, the maximum relative binding in a first study occurred at an antibody concentration of 80 nM, which is a β2GPI to antibody ratio of only 0.5.

[8] = ELISA binding to neutral phospholipids; conditions: standard ELISA
[9] = 70% of targeted OS events reached
[10] = about 85% of targeted OS events
[11] = about 85% of targeted OS events, vs docetaxel alone
[12] = functional β2GPI ≥200 μg/mL, 578 evaluable patients
[13] = functional β2GPI ≥200 μg/mL, 592 evaluable patients

In the case of “bavituximab plus docetaxel: treatment arm: weekly 3 mg/kg bavituximab in combination with docetaxel”, the “median OS” value ([1]; 12 months follow-up, about 85% of targeted OS events) is reported as 10.5 months, the mOS [1, 9] is reported as 10.7 months and the “median PFS” value [1, 9] is reported as 4.1 months. It also gave a mOS ([1]; IFNγ high, no subsequent IO) of 9.0 months, an HR ([1]; IFNγ high, no subsequent IO, vs docetaxel alone) of 1.14 and a mOS ([1]; IFNγ high, received subsequent IO) of 13.9 months. For the same molecule, the HR ([1]; IFNγ high, received subsequent IO, vs docetaxel alone) was 1.0, the mOS ([1]; IFNγ low, no subsequent IO) was 10.5 months and the HR ([1]; IFNγ low, no subsequent IO, vs docetaxel alone) was 1.17. For the same molecule, the mOS ([1]; IFNγ low, received subsequent IO) was “not reached”, the HR ([1]; IFNγ low, received subsequent IO, vs docetaxel alone) was 0.24 and the mOS ([1]; VS Good patients (VeriStrat)) was 11.2 months. For the same molecule, the mOS ([1]; VS Poor patients (VeriStrat)) was 5.8 months, the ORR [1, 10] was 15% and the PFS [1, 10] was 4.2 months. The “HR for OS” value [1, 11] was 1.06, the “HR for PFS” value [1, 11] was 1.02 and the HR for death ([1]; functional β2GPI 200-240 μg/mL) was 0.67. For the same molecule, the “improvement in mOS versus control group” value ([1]; functional β2GPI 200-240 μg/mL) was 5.5 month, the mOS ([1]; functional β2GPI 200-240 μg/mL) was 13.2 months and the HR for death [1, 12] was 0.77. The mOS [1, 12] was 11.9 months, the HR for death [1, 13] was 0.81 and the mOS [1, 13] was 11.9 months. For the same molecule, the mOS ([1]; higher PD-L1 expression (TC1/2/3, ≥1%)) was 6.0 months, the “HR, PD-L1 TC0 versus TC1/2/3 within arm” value ([1]; in vivo) was 0.38 and the mOS ([1]; negative PD-L1 expression (TC0, <1%)) was 11.5 months. The HR ([1]; no subsequent IO, vs docetaxel alone) was 1.16, the mOS ([1]; patients receiving subsequent IO) was “has yet to be reached” and the HR ([1]; patients receiving subsequent IO, vs docetaxel alone) was 0.46. For the same molecule, the mOS ([1]; patients who did not receive subsequent IO) was 9.2 months, the mOS ([1]; pre-treatment serum IFNγ high (≥ median 0.093 μg/mL)) was 9.2 months and the mOS ([1]; pre-treatment serum IFNγ low (< median 0.093 μg/mL)) was 11.9 months. The “HR for OS versus combined arm” value ([2]; 3 mg/kg) was 0.66, the “Overall Survival, Median” value ([2]; ITT, all with docetaxel, Bavituximab arm 3 mg/kg) was 11.7 Months and the “Grade 5 (fatal) events” value ([2]; bavituximab 3 mg/kg, combined control = placebo or 1 mg/kg bavituximab, all with docetaxel) was 5.0%. The “Grade 3 or higher adverse events” value [3] was 68%.

B1: 3G4: mouse IgG3 monoclonal PS-targeting antibody, hybridoma ATCC PTA 4545 (antibody, V domains shown)
VH: EVQLQQSGPELEKPGASVKLSCKASGYSFTGYNMNWVKQSHGKSLEWIGHIDPYYGDTSYNQKFRGKATLTVDKSSSTAYMQLKSLTSEDSAVYYCVKGGYYGHWYFDVWGAGTTVTVSSATTTAPSVYPLVP
VL: DIQMTQSPSSLSASLGERVSLTCRASQDIGSSLNWLQQGPDGTIKRLIYATSSLDSGVPKRFSGSRSGSDYSLTISSLESEDFVDYYCLQYVSSPPTFGAGTKLELKRADAAPTVFIFGRIP
In the case of B1, the β2GPI domain bound (β2GPI) is listed as “bind to β2GPI at domain II”, the anti-tumor effects (tumors) is listed as “caused tumor vascular injury, localized thrombosis, tumor necrosis and retarded tumor growth” and the toxicity (tumors) is listed as “no evidence of toxicity”. For the same molecule, the “binding to anionic phospholipids (PS, PI, PA, PG, CL)” value (PS [4]) was “bind strongly to anionic phospholipids”, the “binding to phospholipids in standard ELISA” value (PS [5]) was “bound to PS, CL, PI (phosphatidylinositol), PA (phosphatidic acid) and PG (phosphatidylglycerol)” and the “binding to neutral phospholipids PC, SM or PE” value [6] was “no detectable binding”. The “antibody concentration at maximum relative binding to PS on cells” value [7] was 80 nM, the “molar ratio of β2GPI to antibody for optimal antibody binding” value [7] was “between 0.125, 0.5 and 2” and the “β2GPI to antibody ratio at maximum relative binding” value ([7]; antibody 80 nM) was 0.5. The “reaction with neutral phospholipids, PC and SM” value [8] was “did not react”.
